Results from patent US12673025B2, “Pegylated liposomes and uses thereof” (LT BIOPHARMA INC., priority 2024, dated 2026).
In brackets after ≈: the same amount, converted by molar mass. Read-outs that look alike come from different tables or passages of the source.

How the values were obtained:
[1] = test system: Staphylococcus aureus (ATCC19636); assay: MIC broth microdilution assay; assay type: cell-based
[2] = test system: Pseudomonas aeruginosa ATCC 27853; assay: MIC broth microdilution assay; assay type: cell-based; conditions: for MIC: ATCC27853; for antibacterial activity: Pseudomonas aeruginosa (ATCC278533)
Protocol: (§1) For the purpose of antimicrobial activity evaluation of liposome encapsulated nosiheptide, bacteria strain was cultivated in tryptic soy broth (Difco, Becton, Dickinson, Sparks, MD) or brain heart infusion broth (Difco, Becton, Dickinson, Sparks, MD) at 37° C. for 16˜18 hours to the stationary phase. After that, 1000 μl of inoculums were treated to 15 ml tryptic soy broth medium and incubated at 37° C. for 3˜4 hours. Bacteria counts were determined to 5×10^5 CFU/ml for antimicrobial activity via absorbance value of OD600 (1 OD600=1×10^8 CFU/ml) by spectrophotometer. (Ultraspec 2100 Pro, UV/Visible spectrophotometer, Biochrom, Massachusetts, USA)
(§2) The minimum inhibitory concentration values of peptides and liposome encapsulated peptides were evaluated by standard broth microdilution assay which was referred to the guideline of the Clinical and Laboratory Standards Institute (CLSI) (M27-A4., C.a.L.S.I.a.s.t.e.C.d., Reference method for broth dilution antifungal susceptibility testing of yeasts. Clinical and Laboratory Standards Institute, Wayne, PA., 2017). MIC assays were carried out with initial bacterial inoculum of 5×10^5 colony forming units (CFU/ml) in suitable medium. Peptides and liposome encapsulated peptides were added to polystyrene 96-well plates with serial dilution. Vancomycin-Resistant Staphylococcus aureus (VRSA01), Staphylococcus aureus (ATCC29213), Staphylococcus aureus (ATCC33591), Pseudomonas aeruginosa (ATCC278533) were cultivated in TSB broth. MICs was preliminarily defined as the lowest concentration of peptides which inhibited the 90% visible growth of bacteria.
(§3) The concentration-diluted peptide was treated 1 μl in 96-well plates. Subsequently, 99 μl medium which containing 5×10^5 CFU/ml bacteria inoculum were loaded individually in each wells, the serial-diluted concentration of peptide were from 8 to 0.0625 μg/ml. Evaluation of bacterial growth were performed by measuring the OD at 600 nm in a microplate reader (TECAN, Sunrise™) over 16 hours at 37° C. Medium-treated wells were used as the control, and all experiments were carried out in triplicate.

[3] = test system: Staphylococcus aureus (ATCC29213); assay: MIC broth microdilution assay; assay type: cell-based
Protocol: as §1, §2, §3

[4] = test system: Staphylococcus aureus (ATCC33591); assay: MIC broth microdilution assay; assay type: cell-based
Protocol: as §1, §2, §3

[5] = test system: Vancomycin-Resistant Staphylococcus aureus (VRSA01); assay: MIC broth microdilution assay; assay type: cell-based
Protocol: as §1, §2, §3

VRSA 01 = assay: Time-kill analysis; assay type: cell-based, Staphylococcus aureus; conditions: ¼×MIC
Protocol: The antimicrobial activity of nosiheptide and nosiheptide liposome against VRSA 01 were assessed by time-kill analysis. VRSA 01 was cultured in TSB medium overnight. After that, fresh TSB was inoculated for growth to mid-logarithmic phase. Bacteria was added at starting inoculum of 5×10^9 CFU/ml. Nosiheptide and nosiheptide liposome were added to final concentrations with 1×MIC and ¼×MIC, the value of MICs were determined in previous experiments. Bacteria with only medium was regarded as the grown control. The cultures were incubated in 37° C. shaking incubator, and aliquots were removed from each tube at 1, 2, 4, 8, 24 hours and serially diluted for CFU enumeration on TSA plates. To compare rates of antibiotic killing, the decline of viable bacteria (Log10 CFU/ml) was evaluated at the measured time points. Experiments were repeated independently in triplicate. The lower limit of detection for the colony counts was 2 log10 CFU/ml.

A549 cells = assay: MTT cell viability assay; assay type: cell-based; conditions: Homo sapiens, A549 lung cancer cells, 24 h
Protocol: (§4) The MTT assay was performed to determine cell viability. 5×10^3 cells per well with 100 μl cell medium were plated in 96-well plates, incubating for 24 hours. Then, the cell medium in plates was removed and each well was treated medium with free nosiheptide or liposome encapsulated nosiheptide in serial-diluted concentration from 3.125 to 50 μM. The medium with PBS buffer was regarded as the control group. After incubating 24 hours, the medium was removed and 100 μl medium-diluted 10% MTT was added in the 96 well plate. After incubation for 3 hours, the MTT solution was removed and the residual formazan crystal was dissolved with 100 μl DMSO (Dimethyl sulfoxide, Sigma Aldrich). The cell viability was determined by measuring the absorbance at 570 nm using ELISA Reader (TECAN, Sunrise™), and the data was calculated by the following formula: […]
(§5) The range of IC50 values was obtained by observing the curve, and all experiments were carried out in triplicate.

HFW cells = assay: MTT cell viability assay; assay type: cell-based; conditions: HFW normal cells, 24 h
Protocol: as §4, §5

[6] = test system: Staphylococcus aureus (ATCC33591); assay: Murine model of i.v. S. aureus infection (survival); assay type: in vivo, mice; conditions: 20 mg/kg i.v. at 1 and 8 hours after infection
Protocol: Establishment of murine injection model of was assessed to test in vivo efficacy of nosiheptide liposome. Eight-week-old female ICR mice (LASCO, Taipei, Taiwan) were injected i.v. with 1×10^9 CFU/ml of Staphylococcus aureus (ATCC33591) strain in PBS buffer (pH=7.42).

SMILES | antibacterial activity [1] | MIC ([1]; read-out: MIC) [µg/mL] | MIC ([2]; Pseudomonas aeruginosa ATCC 27853, read-out: MIC) [µg/mL] | antibacterial activity [2] | MIC ([3]; read-out: MIC) [µg/mL] | MIC ([4]; read-out: MIC) [µg/mL] | MIC ([5]; Vancomycin Resistant Staphylococcus aureus 01, read-out: MIC) [µg/mL] | time to 2-log kill (VRSA 01) [hours] | IC50 (A549 cells) [µM] | IC50 (HFW cells) [µM] | survival rate ([6]; end of study (7 days)) [%] | mice died during the first two days ([6]; first two days) | MIC [1] [µg/mL] | MIC ([2]; Pseudomonas aeruginosa) [µg/mL] | MIC [3] [µg/mL] | MIC [4] [µg/mL] | MIC ([5]; Staphylococcus aureus) [µg/mL]
C=C(NC(=O)c1csc(-c2nc3c(cc2O)-c2nc(cs2)C(=O)NC(C(C)O)C(=O)N/C(=C\C)c2nc(cs2)C(=O)NC2CC(O)C(=O)OCc4cccc5[nH]c(c(C)c45)C(=O)SCC(NC(=O)c4csc2n4)c2nc-3cs2)n1)C(N)=O (stereo not shown) [Nosiheptide Free, Nosiheptide] | no antibacterial activity | > 8 | > 8 | no antibacterial activity | 0.125 (≈ 0.102 µM) | 0.0625 (≈ 0.0511 µM) | 0.0625 (≈ 0.0511 µM) | 4 | 26.2 ± 5.26 | 28.3 ± 9.23 | 62.5 | ⅜ |  |  |  |  | 
C=C(NC(=O)C(=C)NC(=O)c1csc(C2=N[C@@H]3c4csc(n4)[C@H]4NC(=O)c5csc(n5)[C@H]([C@](C)(O)[C@@H](C)O)NC(=O)[C@H]5CSC(=N5)/C(=C/C)NC(=O)[C@H]([C@@H](C)O)NC(=O)c5csc(n5)[C@]3(CC2)NC(=O)[C@H](C)NC(=O)C(=C)NC(=O)[C@H](C)NC(=O)[C@H]([C@@H](C)CC)N[C@@H]2C=Cc3c([C@H](C)O)cc(nc3[C@H]2O)C(=O)O[C@@H]4C)n1)C(N)=O [Thiostrepton Free, Thiostrepton] | no antibacterial activity |  |  | no antibacterial activity |  |  |  |  |  |  |  |  | > 8 | > 8 | 0.625 (≈ 0.375 µM) | 0.625 (≈ 0.375 µM) | 0.25 (≈ 0.15 µM)
